PubChem BioAssay (NCI)
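Five compound concentrations were applied to cells in 96-well plates for 48 hours; endpoints were derived by simple linear interpolation of the resulting dose-response curve. TGI: concentration producing complete growth inhibition.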

Assays:
Test in all cases: NCI-60 cell line screen, 48 h
[1] = system: 786-0 renal
[2] = system: A498 renal
[3] = system: A549 NSCLC
[4] = system: ACHN renal
[5] = system: COLO 205 colon
[6] = system: DLD-1 colon
[7] = system: DMS 114 small cell lung
[8] = system: DMS 273 small cell lung
[9] = system: EKVX NSCLC
[10] = system: HCC-2998 colon
[11] = system: HCT-15 colon
[12] = system: HL-60(TB) leukemia
[13] = system: HOP-18 NSCLC
[14] = system: HT29 colon
[15] = system: IGROV1 ovarian
[16] = system: K-562 leukemia
[17] = system: KM12 colon
[18] = system: LOX IMVI melanoma
[19] = system: LXFL 529 NSCLC
[20] = system: M14 melanoma
[21] = system: M19-MEL melanoma
[22] = system: MALME-3M melanoma
[23] = system: MOLT-4 leukemia
[24] = system: NCI-H226 lung
[25] = system: NCI-H23 lung
[26] = system: NCI-H460 lung
[27] = system: OVCAR-3 ovarian
[28] = system: OVCAR-4 ovarian
[29] = system: OVCAR-5 ovarian
[30] = system: OVCAR-8 ovarian
[31] = system: RPMI-8226 leukemia
[32] = system: RXF 393 renal
[33] = system: RXF-631 renal
[34] = system: SF-268 CNS
[35] = system: SF-295 CNS
[36] = system: SF-539 CNS
[37] = system: SK-MEL-28 melanoma
[38] = system: SK-MEL-5 melanoma
[39] = system: SK-OV-3 ovarian
[40] = system: SN12C renal
[41] = system: SNB-19 CNS
[42] = system: SNB-75 CNS
[43] = system: SNB-78 CNS
[44] = system: SR leukemia
[45] = system: SW-620 colon
[46] = system: TK-10 renal
[47] = system: U251 CNS
[48] = system: UACC-62 melanoma
[49] = system: UO-31 renal
[50] = system: XF 498 CNS
[51] = system: CAKI-1 renal
[52] = system: CCRF-CEM leukemia
[53] = system: HOP-62 NSCLC
[54] = system: NCI-H522 lung
[55] = system: SK-MEL-2 melanoma
[56] = system: UACC-257 melanoma

In the case of CC(=O)N1C(=O)C(=O)c2cc(Cl)ccc21, the TGI [1] is reported as > 100 µM, the TGI [2] is reported as > 100 µM and the TGI [3] is reported as > 100 µM. For the same compound, the TGI [4] was > 100 µM, the TGI [5] was > 100 µM and the TGI [6] was > 100 µM. For the same compound, the TGI [7] was > 100 µM, the TGI [8] was > 100 µM and the TGI [9] was > 100 µM. For the same compound, the TGI [10] was > 100 µM, the TGI [11] was > 100 µM and the TGI [12] was > 100 µM. For the same compound, the TGI [13] was > 100 µM, the TGI [14] was > 100 µM and the TGI [15] was > 100 µM. The TGI [16] was > 100 µM, the TGI [17] was > 100 µM and the TGI [18] was > 100 µM. For the same compound, the TGI [19] was > 100 µM, the TGI [20] was > 100 µM and the TGI [21] was > 100 µM. For the same compound, the TGI [22] was > 100 µM, the TGI [23] was > 100 µM and the TGI [24] was > 100 µM. For the same compound, the TGI [25] was > 100 µM, the TGI [26] was > 100 µM and the TGI [27] was > 100 µM. The TGI [28] was > 100 µM, the TGI [29] was > 100 µM and the TGI [30] was > 100 µM. The TGI [31] was > 100 µM, the TGI [32] was > 100 µM and the TGI [33] was > 100 µM. For the same compound, the TGI [34] was > 100 µM, the TGI [35] was > 100 µM and the TGI [36] was > 100 µM. For the same compound, the TGI [37] was > 100 µM, the TGI [38] was > 100 µM and the TGI [39] was > 100 µM. For the same compound, the TGI [40] was > 100 µM, the TGI [41] was > 100 µM and the TGI [42] was > 100 µM. For the same compound, the TGI [43] was > 100 µM, the TGI [44] was > 100 µM and the TGI [45] was > 100 µM. For the same compound, the TGI [46] was > 100 µM, the TGI [47] was > 100 µM and the TGI [48] was > 100 µM. The TGI [49] was > 100 µM and the TGI [50] was 65.2 µM.

C=CCCC12CCCC(=O)C1Sc1ccc3ccccc3c12 (stereo unspecified) was tested, and the TGI [1] was 48.2 µM, the TGI [2] was 26.1 µM and the TGI [3] was 24.5 µM. The TGI [4] was 92.3 µM, the TGI [51] was 26.4 µM and the TGI [52] was 53.8 µM. It also gave a TGI [5] of 29.1 µM, a TGI [6] of 71.5 µM and a TGI [8] of 23.6 µM. The TGI [9] was 64.2 µM, the TGI [10] was 34.2 µM and the TGI [11] was 37.5 µM. It also gave a TGI [12] of 44.6 µM, a TGI [13] of 61.2 µM and a TGI [53] of 53.5 µM. The TGI [14] was 67.2 µM, the TGI [15] was > 100 µM and the TGI [16] was > 100 µM. The TGI [17] was 31.2 µM, the TGI [18] was 26.5 µM and the TGI [19] was 33.2 µM. The TGI [20] was 31.1 µM, the TGI [21] was > 100 µM and the TGI [22] was 52.7 µM. It also gave a TGI [23] of 39.6 µM, a TGI [24] of 36.2 µM and a TGI [25] of 55.7 µM. For the same compound, the TGI [54] was 35 µM, the TGI [27] was 29 µM and the TGI [28] was > 100 µM. For the same compound, the TGI [29] was 93.5 µM, the TGI [30] was > 100 µM and the TGI [31] was 42.9 µM. The TGI [32] was 26.2 µM, the TGI [33] was 34 µM and the TGI [34] was > 100 µM. It also gave a TGI [35] of 51.2 µM, a TGI [36] of 28.5 µM and a TGI [55] of 32.8 µM. For the same compound, the TGI [37] was > 100 µM, the TGI [39] was 66.4 µM and the TGI [40] was 54.4 µM. For the same compound, the TGI [41] was 96 µM, the TGI [42] was 82.9 µM and the TGI [43] was 60.8 µM. It also gave a TGI [45] of 58.6 µM, a TGI [46] of 51.2 µM and a TGI [47] of 33.6 µM. The TGI [56] was 55.7 µM, the TGI [48] was 40 µM and the TGI [49] was 42.5 µM.
